In US20250320206A1, “STAT6 DEGRADERS” (Gilead Sciences, Inc., priority 2024, published 2025):

Legend:
[1] = tested on: Eotaxin-3 release in human whole blood stimulated with IL-4; experiment: Human Whole Blood Eotaxin-3 Assay (IL-4 stimulated eotaxin-3 release); type: cell-based; settings: IL-4 stimulation, 48 h, values given for compounds with >80% Emax, geometric mean
Outline: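 Eotaxin-3 (CCL26) release measured by MSD kit in plasma supernatant after 48 h IL-4 stimulation ([…]) of human whole blood. Compounds added in triplicate 4-fold dilutions 2 h before stimulation; 0.5% DMSO final, 37° C, 5% CO2.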

[2] = molecular target: T1, STAT6 (Homo sapiens, UniProt P42226); experiment: Stat6 Degrader Assay (HiBiT based, HeLa LgBiT clone 4.14); type: cell-based; settings: HeLa LgBiT clone 4.14 HiBiT-STAT6, 4-24 h incubation; values given for compounds with >80% Emax; geometric mean; read-out: STAT6 degradation DC50
T1 construct: These cells express endogenous STAT6; host or cells: HeLa LgBiT clone 4.14
T1 sequence (P42226 1-847): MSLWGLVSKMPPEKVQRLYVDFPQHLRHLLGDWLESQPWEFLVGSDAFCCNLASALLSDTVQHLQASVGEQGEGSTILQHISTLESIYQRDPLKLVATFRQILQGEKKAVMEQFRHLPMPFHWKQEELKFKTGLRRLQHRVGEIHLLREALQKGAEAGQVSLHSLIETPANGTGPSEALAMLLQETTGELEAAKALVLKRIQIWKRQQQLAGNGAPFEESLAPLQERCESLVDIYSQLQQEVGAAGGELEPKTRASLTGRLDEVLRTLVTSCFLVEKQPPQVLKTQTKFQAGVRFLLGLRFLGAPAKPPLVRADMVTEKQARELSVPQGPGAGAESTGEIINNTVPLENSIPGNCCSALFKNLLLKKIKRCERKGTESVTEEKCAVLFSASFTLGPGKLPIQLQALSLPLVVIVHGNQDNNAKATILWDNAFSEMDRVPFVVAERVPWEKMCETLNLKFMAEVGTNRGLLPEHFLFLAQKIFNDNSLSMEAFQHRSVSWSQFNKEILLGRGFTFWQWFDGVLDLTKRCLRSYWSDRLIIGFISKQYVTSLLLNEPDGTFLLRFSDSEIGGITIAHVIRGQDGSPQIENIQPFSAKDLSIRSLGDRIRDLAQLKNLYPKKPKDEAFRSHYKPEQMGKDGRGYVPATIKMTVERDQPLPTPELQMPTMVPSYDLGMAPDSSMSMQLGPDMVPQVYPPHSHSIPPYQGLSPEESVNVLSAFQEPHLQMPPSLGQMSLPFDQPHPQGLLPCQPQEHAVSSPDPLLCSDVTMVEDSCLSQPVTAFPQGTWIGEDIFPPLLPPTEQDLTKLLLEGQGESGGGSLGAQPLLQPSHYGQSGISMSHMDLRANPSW
Outline: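 Luminescence from HiBiT-STAT6 complementing stably expressed LgBiT in HeLa clone 4.14 reports remaining STAT6 protein. Cells (5000/well) exposed to compound for 4-24 h at 37° C; read 0.5 h after Nano-Glo addition. 100% degradation window set with 50 μM terfenadine; percent degradation plotted against concentration.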

SMILES | EC50 [1] | DC50 [2]
CNc1ccn(-c2ccnc3c2cc([C@H](C)N2CC=C(c4c(F)cc(C(=O)N5CCC(CN6CCN(Cc7ccc8c(c7)C(C)(C)C(=O)N8[C@@H]7CCC(=O)NC7=O)C[C@@H]6C)CC5)cc4F)CC2)n3C)c(=O)c1 (single isomer, unassigned) [Example 3u203] | 5.2 nM | 3.4 nM
CNc1ccn(-c2ccnc3c2cc([C@H](C)N2CC=C(c4c(C)cc(C(=O)N5CCC(CN6CCN(Cc7cc8c(cc7F)n([C@H]7CCC(=O)NC7=O)c(=O)n8C)C[C@@H]6C)CC5)cc4F)CC2)n3C)c(=O)c1 (single isomer, unassigned) [Example 3u208] | 0.8 nM | 0.6 nM
CNc1ccn(-c2ccnc3c2cc([C@H](C)N2CC=C(c4c(C)cc(C(=O)N5CCC(CN6CCN(Cc7cc8c(cc7F)n([C@@H]7CCC(=O)NC7=O)c(=O)n8C)C[C@@H]6C)CC5)cc4F)CC2)n3C)c(=O)c1 (single isomer, unassigned) [Example 3u209] | 0.7 nM | 7.3 nM
CNc1ccn(-c2ccnc3c2cc([C@H](C)N2CC=C(c4c(F)cc(C(=O)N5CCC(CN6CCN(Cc7ccc8c(c7)n(C7CC7)c(=O)n8[C@H]7CCC(=O)NC7=O)C[C@@H]6C)CC5)cc4F)CC2)n3C)c(=O)c1 (single isomer, unassigned) [Example 3u211] | 0.5 nM | 0.5 nM
CNc1ccn(-c2ccnc3c2cc([C@H](C)N2CC=C(c4c(F)cc(C(=O)N5CCC(CN6CCN(Cc7ccc8c(c7)n(C7CC7)c(=O)n8[C@@H]7CCC(=O)NC7=O)C[C@@H]6C)CC5)cc4F)CC2)n3C)c(=O)c1 (single isomer, unassigned) [Example 3u212] | 0.8 nM | 7.5 nM
CNc1ccn(-c2ccnc3c2cc([C@H](C)N2CC=C(c4c(C)cc(C(=O)N(C)c5ccc(C6CCN(Cc7ccc8c(c7)n(C)c(=O)n8[C@H]7CCC(=O)NC7=O)CC6)cc5)cc4F)CC2)n3C)c(=O)c1 (single isomer, unassigned) [Example 3u226] | 0.2 nM | 0.05 nM
CNc1ccn(-c2ccnc3c2cc([C@H](C)N2CC=C(c4c(C)cc(C(=O)N(C)c5ccc(C6CCN(Cc7ccc8c(c7)n(C)c(=O)n8[C@@H]7CCC(=O)NC7=O)CC6)cc5)cc4F)CC2)n3C)c(=O)c1 (single isomer, unassigned) [Example 3u227] | 0.3 nM | 0.04 nM
CNc1ccn(-c2ccnc3c2cc(CN2CC=C(c4c(C)cc(C(=O)N(C)c5ccc(C6CCN(Cc7ccc8c(c7)C(C)(C)C(=O)N8[C@H]7CCC(=O)NC7=O)CC6)cc5)cc4F)CC2)n3C)c(=O)c1 (single isomer, unassigned) [Example 3u229] | 1.6 nM | 0.3 nM
CNc1ccn(-c2ccnc3c2cc(CN2CC=C(c4c(C)cc(C(=O)N(C)c5ccc(C6CCN(Cc7ccc8c(c7)C(C)(C)C(=O)N8[C@@H]7CCC(=O)NC7=O)CC6)cc5)cc4F)CC2)n3C)c(=O)c1 (single isomer, unassigned) [Example 3u230] | 2 nM | 0.4 nM
CNc1cc(=O)n(-c2ccnc3c2cc([C@H](C)N2CC=C(c4c(C)cc(C(=O)N(C)c5ccc(C6CCN(Cc7ccc8c(c7)C(C)(C)C(=O)N8[C@@H]7CCC(=O)NC7=O)CC6)cc5)cc4F)CC2)n3C)cc1F (single isomer, unassigned) [Example 3u235] | 1.4 nM | 0.1 nM
CNc1cc(=O)n(-c2ccnc3c2cc([C@H](C)N2CC=C(c4c(C)cc(C(=O)N(C)c5ccc(N6CCC(Cc7ccc8c(c7)n(C)c(=O)n8[C@H]7CCC(=O)NC7=O)CC6)nc5)cc4F)CC2)n3C)cc1F (single isomer, unassigned) [Example 3u242] | 0.2 nM | 0.2 nM
CNc1cc(=O)n(-c2ccnc3c2cc([C@H](C)N2CC=C(c4c(C)cc(C(=O)N(C)c5ccc(N6CCC(Cc7ccc8c(c7)n(C)c(=O)n8[C@@H]7CCC(=O)NC7=O)CC6)nc5)cc4F)CC2)n3C)cc1F (single isomer, unassigned) [Example 3u243] | 0.4 nM | 0.3 nM
CNc1ccn(-c2ccnc3c2cc([C@H](C)N2CC=C(c4c(C)cc(C(=O)N5CCC(CN6CCN(c7ccc8c(c7)n(C7CC7)c(=O)n8[C@H]7CCC(=O)NC7=O)CC6)CC5)cc4F)CC2)n3C)c(=O)c1 (single isomer, unassigned) [Example 3u279] | 1.7 nM | 1.4 nM
CNc1ccn(-c2ccnc3c2cc([C@H](C)N2CC=C(c4c(C)cc(C(=O)N5CCC(CN6CCN(c7ccc8c(c7)C(C)(C)C(=O)N8[C@@H]7CCC(=O)NC7=O)CC6)CC5)cc4F)CC2)n3C)c(=O)c1 (single isomer, unassigned) [Example 3u281] | 4.2 nM | 4 nM
CNc1cc(=O)n(-c2ccnc3c2cc([C@H](C)N2CC=C(c4c(C)cc(C(=O)N5CCC(CN6CCN(c7ccc8c(c7)C(C)(C)C(=O)N8[C@H]7CCC(=O)NC7=O)CC6)CC5)cc4F)CC2)n3C)cc1F (single isomer, unassigned) [Example 3u285] | 101 nM | 7.8 nM
CNc1cc(=O)n(-c2ccnc3c2cc([C@H](C)N2CC=C(c4c(C)cc(C(=O)N5CCC(CN6CCN(c7ccc8c(c7)C(C)(C)C(=O)N8[C@@H]7CCC(=O)NC7=O)CC6)CC5)cc4F)CC2)n3C)cc1F (single isomer, unassigned) [Example 3u286] | 25.2 nM | 12.5 nM

Now from value to compound:

EC50 [1] | DC50 [2] | SMILES
5.9 nM | 3 nM | CNc1ccn(-c2ccnc3c2cc(CN2CCC(c4c(F)cc(C(=O)N5CCC(CN6CCN(Cc7ccc8c(c7)C(C)(C)C(=O)N8[C@H]7CCC(=O)NC7=O)C[C@@H]6C)CC5)cc4F)CC2)n3C)c(=O)c1 (single isomer, unassigned) [Example 3u205]
10.9 nM | 0.4 nM | CNc1ccn(-c2ccnc3c2cc(CN2CCC(c4c(F)cc(C(=O)N5CCC(CN6CCN(Cc7ccc8c(c7)C(C)(C)C(=O)N8[C@@H]7CCC(=O)NC7=O)C[C@@H]6C)CC5)cc4F)CC2)n3C)c(=O)c1 (single isomer, unassigned) [Example 3u206]
5.6 nM | 3.5 nM | CNc1cc(=O)n(-c2ccnc3c2cc(CN2CC=C(c4c(F)cc(C(=O)N5CCC(CN6CCN(Cc7ccc8c(c7)n(C7CC7)c(=O)n8[C@@H]7CCC(=O)NC7=O)C[C@@H]6C)CC5)cc4F)CC2)n3C)cc1F (single isomer, unassigned) [Example 3u215]
0.6 nM | 1.8 nM | CNc1ccn(-c2ccnc3c2cc(CN2CCC(c4c(F)cc(C(=O)N5CCC(CN6CCN(Cc7ccc8c(c7)n(C7CC7)c(=O)n8[C@H]7CCC(=O)NC7=O)C[C@@H]6C)CC5)cc4F)CC2)n3C)c(=O)c1 (single isomer, unassigned) [Example 3u217]
0.8 nM | 2.6 nM | CNc1ccn(-c2ccnc3c2cc(CN2CCC(c4c(F)cc(C(=O)N5CCC(CN6CCN(Cc7ccc8c(c7)n(C7CC7)c(=O)n8[C@@H]7CCC(=O)NC7=O)C[C@@H]6C)CC5)cc4F)CC2)n3C)c(=O)c1 (single isomer, unassigned) [Example 3u218]
2.4 nM | 1.3 nM | CNc1cc(=O)n(-c2ccnc3c2cc(CN2CCC(c4c(F)cc(C(=O)N5CCC(CN6CCN(Cc7ccc8c(c7)C7(CC7)C(=O)N8[C@H]7CCC(=O)NC7=O)C[C@@H]6C)CC5)cc4F)CC2)n3C)cc1F (single isomer, unassigned) [Example 3u220]
4.5 nM | 1.9 nM | CNc1cc(=O)n(-c2ccnc3c2cc(CN2CCC(c4c(F)cc(C(=O)N5CCC(CN6CCN(Cc7ccc8c(c7)C7(CC7)C(=O)N8[C@@H]7CCC(=O)NC7=O)C[C@@H]6C)CC5)cc4F)CC2)n3C)cc1F (single isomer, unassigned) [Example 3u221]
1.3 nM | 0.9 nM | CNc1ccn(-c2ccnc3c2cc(CN2CCC(c4c(F)cc(C(=O)N5CCC(CN6CCN(Cc7ccc8c(c7)C7(CC7)C(=O)N8[C@H]7CCC(=O)NC7=O)C[C@@H]6C)CC5)cc4F)CC2)n3C)c(=O)c1 (single isomer, unassigned) [Example 3u223]
1.5 nM | 1.3 nM | CNc1ccn(-c2ccnc3c2cc(CN2CCC(c4c(F)cc(C(=O)N5CCC(CN6CCN(Cc7ccc8c(c7)C7(CC7)C(=O)N8[C@@H]7CCC(=O)NC7=O)C[C@@H]6C)CC5)cc4F)CC2)n3C)c(=O)c1 (single isomer, unassigned) [Example 3u224]
